In patent publication US9809574B2, “Isoindoline or isoquinoline compounds, a process for their preparation and pharmaceutical compositions containing them” (LES LABORATOIRES SERVIER, priority 2013, dated 2017):
Counter-ions that a name gives are not always drawn.

What was measured:
[1] = test system: RS4; 11 leukaemia cell line; assay: In vitro cytotoxicity, Microculture Tetrazolium Assay (MTT); assay type: cell-based; conditions: Homo sapiens, 11 cells exposed for 48 hours
Experimental: The cytotoxicity studies were carried out on the RS4; 11 leukaemia cell line and on H146 small Cell Lung Carcinoma cell line. The cells are distributed onto microplates and exposed to the test compounds for 48 hours. The cell viability is then quantified by a colorimetric assay, the Microculture Tetrazolium Assay (Cancer Res., 1987, 47, 939-942).

[2] = target: Bcl-2 protein (histag-Bcl-2, UniProtKB P10415) (Homo sapiens (Human), UniProt P10415); assay: Inhibition of Bcl-2 by the fluorescence polarisation technique; assay type: binding; conditions: fluorescence polarisation test; incubation for 2 hours; read-out: IC50 (nM) Bcl-2 FP
Excerpt: For partial inhibitors, the percentage fluorescence polarisation inhibition for a given concentration of the test compound is indicated.

Chain of Bcl-2 protein (P10415 whole entry): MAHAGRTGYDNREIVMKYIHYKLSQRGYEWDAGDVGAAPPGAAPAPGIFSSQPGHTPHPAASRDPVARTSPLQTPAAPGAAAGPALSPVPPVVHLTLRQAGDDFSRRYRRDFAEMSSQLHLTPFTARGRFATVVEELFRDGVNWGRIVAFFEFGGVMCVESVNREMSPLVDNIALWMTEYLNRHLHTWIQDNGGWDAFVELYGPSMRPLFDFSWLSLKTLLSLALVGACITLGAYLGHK

Work on `C[C@@H]1Cc2ccccc2CN1C(=O)c1cc2c(cc1-c1cc(C(=O)N(C)c3ccc(O)cc3)c3n1CCCC3)CCN(C(=O)NCc1ccccc1)C2` [Example 73, N-Benzyl-6-{1-[(4-hydroxyphenyl)(methyl)carbamoyl]-5,6,7,8-tetrahydroindolizin-3-yl}-7-[(3R)-3-methyl-1,2,3,4-tetrahydroisoquinoline-2-carbonyl]-1,2,3,4-tetrahydroisoquinoline-2-carboxamide] yielded an IC50 [1] of 36 nM and an IC50 [2] of 4.3 nM.
`CCNC(=O)N1Cc2cc(C(=O)N3Cc4ccccc4C[C@H]3C)c(-c3cc(C(=O)N(C)c4ccc(O)cc4)c(C)n3C)cc2C1` [Example 110, N-Ethyl-5-{4-[(4-hydroxyphenyl)(methyl)carbamoyl]-1,5-dimethyl-1H-pyrrol-2-yl}-6-[(3R)-3-methyl-1,2,3,4-tetrahydroisoquinoline-2-carbonyl]-2,3-dihydro-1H-isoindole-2-carboxamide] showed an IC50 [1] of 329 nM and an IC50 [2] of 19 nM.
For `C[C@@H]1Cc2ccccc2CN1C(=O)c1cc2c(cc1-c1cc(C(=O)N(C)c3ccc(O)cc3)c3n1CCCC3)CN(C(=O)COc1ccccc1)C2` [Example 52, N-(4-Hydroxyphenyl)-N-methyl-3-{6-[(3R)-3-methyl-1,2,3,4-tetrahydroisoquinoline-2-carbonyl]-2-(2-phenoxyacetyl)-2,3-dihydro-1H-isoindol-5-yl}-5,6,7,8-tetrahydroindolizine-1-carboxamide], the IC50 [1] was 56 nM and the IC50 [2] was 3.8 nM.
Compound `CCCCN(CCCC)C(=O)c1cc(-c2cc3c(cc2C(=O)N2Cc4ccccc4C[C@H]2CN2CCOCC2)CN(C(=O)Oc2ccccc2)CC3)n(C)c1C` [Example 197, Phenyl 6-[4-(dibutylcarbamoyl)-1,5-dimethyl-1H-pyrrol-2-yl]-7-[(3S)-3-(morpholin-4-ylmethyl)-1,2,3,4-tetrahydroisoquinoline-2-carbonyl]-1,2,3,4-tetrahydroisoquinoline-2-carboxylate] has an IC50 [1] of over 150 nM and an IC50 [2] of 26 nM.
`Cc1c(C(=O)N(C)c2ccc(O)cc2)cc(-c2cc3c(cc2C(=O)N2Cc4ccccc4C[C@H]2CN2CCOCC2)CN(C(=O)Oc2ccc(Cl)cc2)CC3)n1C` [Example 140, 4-Chlorophenyl 6-{4-[(4-hydroxyphenyl)(methyl)carbamoyl]-1,5-dimethyl-1H-pyrrol-2-yl}-7-[(3S)-3-(morpholin-4-ylmethyl)-1,2,3,4-tetrahydroisoquinoline-2-carbonyl]-1,2,3,4-tetrahydroisoquinoline-2-carboxylate] was tested, and the IC50 [1] was 4 nM and the IC50 [2] was 6.6 nM.
For `C[C@@H]1Cc2ccccc2CN1C(=O)c1cc2c(cc1-c1cc(C(=O)N(C)c3ccc(O)cc3)c3n1CCCC3)CCN(C(=O)Cc1cccc(NCCN(C)C)c1)C2` [Example 123, 3-{2-[2-(3-{[2-(Dimethylamino)ethyl]amino}phenyl)acetyl]-7-[(3R)-3-methyl-1,2,3,4-tetrahydroisoquinoline-2-carbonyl]-1,2,3,4-tetrahydroisoquinolin-6-yl}-N-(4-hydroxyphenyl)-N-methyl-5,6,7,8-tetrahydroindolizine-1-carboxamide], the IC50 [1] was 8.3 nM and the IC50 [2] was 5.3 nM.
`Cc1c(C(=O)N(C)c2ccc(O)cc2)cc(-c2cc3c(cc2C(=O)N2Cc4ccccc4C[C@H]2CN2CCN(C)CC2)CN(C(=O)Cc2ccccc2)CC3)n1C` [Example 778, N-(4-Hydroxyphenyl)-N,1,2-trimethyl-5-{7-[(3S)-3-[(4-methylpiperazin-1-yl)methyl]-1,2,3,4-tetrahydroisoquinoline-2-carbonyl]-2-(2-phenylacetyl)-1,2,3,4-tetrahydroisoquinolin-6-yl}-1H-pyrrole-3-carboxamide] gave an IC50 [1] of 52 nM and an IC50 [2] of 3.1 nM.
Work on `Cc1c(C(=O)N(C)c2ccccc2)cc(-c2cc3c(cc2C(=O)N2Cc4ccccc4C[C@H]2C)CN(C(=O)Oc2cccc(OCCN(C)C)c2)CC3)n1C` [Example 448, 3-[2-(Dimethylamino)ethoxy]phenyl 6-{1,5-dimethyl-4-[methyl(phenyl)carbamoyl]-1H-pyrrol-2-yl}-7-[(3R)-3-methyl-1,2,3,4-tetrahydroisoquinoline-2-carbonyl]-1,2,3,4-tetrahydroisoquinoline-2-carboxylate] yielded an IC50 [1] of 8.2 nM and an IC50 [2] of 4 nM.
For `Cc1c(C(=O)N(C)c2ccccc2)cc(-c2cc3c(cc2C(=O)N2Cc4ccccc4C[C@H]2C)CN(C(=O)Oc2ccc(N(C)CCN(C)C)cc2)CC3)n1C` [Example 488, 4-{[2-(Dimethylamino)ethyl](methyl)amino}phenyl 6-{1,5-dimethyl-4-[methyl(phenyl)carbamoyl]-1H-pyrrol-2-yl}-7-[(3R)-3-methyl-1,2,3,4-tetrahydroisoquinoline-2-carbonyl]-1,2,3,4-tetrahydroisoquinoline-2-carboxylate], the IC50 [1] was 13 nM and the IC50 [2] was 5.3 nM.
Compound `Cc1c(C(=O)N(C)c2ccccc2)cc(-c2cc3c(cc2C(=O)N2Cc4ccccc4C[C@H]2CN2CCOCC2)CN(C(=O)Cc2ccccc2)CC3)n1C` [Example 117, N,1,2-trimethyl-5-{7-[(3S)-3-(morpholin-4-ylmethyl)-1,2,3,4-tetrahydroisoquinoline-2-carbonyl]-2-(2-phenylacetyl)-1,2,3,4-tetrahydroisoquinolin-6-yl}-N-phenyl-1H-pyrrole-3-carboxamide] has an IC50 [1] of 39 nM and an IC50 [2] of 2.5 nM.
`CCC(=O)N1Cc2cc(C(=O)N3Cc4ccccc4C[C@H]3CN3CCOCC3)c(-c3cc(C(=O)N(C)c4ccc(O)cc4)c4n3CCCC4)cc2C1` [Example 11, N-(4-Hydroxyphenyl)-N-methyl-3-{6-[(3S)-3-(morpholin-4-ylmethyl)-1,2,3,4-tetrahydroisoquinoline-2-carbonyl]-2-propanoyl-2,3-dihydro-1H-isoindol-5-yl}-5,6,7,8-tetrahydroindolizine-1-carboxamide hydrochloride] was tested, and the IC50 [1] was 763 nM and the IC50 [2] was 22 nM.
`C[C@@H]1Cc2ccccc2CN1C(=O)c1cc2c(cc1-c1cc(C(=O)N(C)c3ccc(O)cc3)c3n1CCCC3)CCN(S(=O)(=O)Cc1ccccc1)C2` [Example 40, N-(4-Hydroxyphenyl)-N-methyl-3-{7-[(3R)-3-methyl-1,2,3,4-tetrahydroisoquinoline-2-carbonyl]-2-phenylmethanesulfonyl-1,2,3,4-tetrahydroisoquinolin-6-yl}-5,6,7,8-tetrahydroindolizine-1-carboxamide] was tested, and the IC50 [1] was 34 nM and the IC50 [2] was 3.6 nM.
`C[C@@H]1Cc2ccccc2CN1C(=O)c1cc2c(cc1-c1cc(C(=O)N(C)c3ccc(O)cc3)c3n1CCCC3)CCN(C(=O)Oc1ccc(N)cc1)C2` [Example 58, 4-Aminophenyl 6-{1-[(4-hydroxyphenyl)(methyl)carbamoyl]-5,6,7,8-tetrahydroindolizin-3-yl}-7-[(3R)-3-methyl-1,2,3,4-tetrahydroisoquinoline-2-carbonyl]-1,2,3,4-tetrahydroisoquinoline-2-carboxylate] was tested, and the IC50 [1] was 3.3 nM and the IC50 [2] was 4.2 nM.
In the case of `Cc1c(C(=O)N(C)c2ccc(O)cc2)cc(-c2cc3c(cc2C(=O)N2Cc4ccccc4C[C@H]2C)CN(C(=O)[C@@H](O)c2ccccc2)C3)n1C` [Example 806, N-(4-Hydroxyphenyl)-5-(2-[(2S)-2-hydroxy-2-phenylacetyl]-6-{[(3R)-3-methyl-3,4-dihydroisoquinolin-2(1H)-yl]carbonyl}-2,3-dihydro-1H-isoindol-5-yl)-N,1,2-trimethyl-1H-pyrrole-3-carboxamide], the IC50 [1] is reported as over 150 nM and the IC50 [2] is reported as 33 nM.
